Our source for the IC50 and inhibition in vivo values is US20190169181A1, “FUMAGILLOL COMPOUNDS AND METHODS OF MAKING AND USING SAME” (Zafgen, Inc., priority 2016, published 2019).

The target of one test is T1, recombinant human MetAP2 (Homo sapiens, UniProt P50579).
T1 construct: Flag; made in house
The test can be described thus: Recombinant human MetAP2 enzyme inhibition assay (MAS peptide / amino acid oxidase / Amplex Ultrared readout). It is filed as biochemical. Particulars: Flag tagged human recombinant MetAP2, 25 minutes at 25° C. How it is done:
Compounds are tested for their capacity to inhibit recombinant human MetAP2 activity using the following assay.
Flag tagged Human recombinant MetAP2 expressed and isolated for use as the enzyme source. 10 mM stock solutions of compounds were prepared in 100% DMSO and further diluted in 100% DMSO required concentration to 1 mM stocks. The stock compound solutions and DMSO vehicle controls were diluted to target final compound concentrations using assay buffer to a final concentration of 50 mM HEPES containing 100 mM NaCl, pH adjusted to 7.5. The MAS peptide was formulated to a 7.5 mM stock in distilled water and prior to use further diluted 1:4. […] 40 μl of enzyme was mixed with 100 μl of MnCl2 then further diluted in assay buffer to a final concentration of 16 μg/ml. To test for compound effect on MetAP2 enzyme activity, 5 μl of test compound, 10 μl of MAS substrate/amino acid oxidase mixture, 10 μl of MetAP2 was added to test wells in a 384 well black plate with blank wells containing no enzyme, replaced with 10 μl of assay buffer. All compounds were tested in duplicate on two occasions on the same day.
The plate was sealed with a TopSeal A cover and mixed briefly on an orbital mixer at 900 rpm. The plate was incubated for a further 25 minutes at 25° C. A 5× stock of Amplex buffer was prepared (0.25 M sodium phosphate, pH 7.4) and stored at 4° C. […] Horse radish peroxidase was diluted in […] of Amplex buffer, 100 μl of this was combined with 50 μl of Amplex Ultrared in […] of 1× Amplex buffer to generate sufficient detection reagent for a 384 well plate. 25 μl detection reagent was added to each well of the test plate, which was re-sealed and mixed briefly on an orbital shaker. The plate was transferred to an Envision Multi-label reader and RFU measured corresponding to excitation 531 nm and emission 595 nm. At the end of the MetAP2 incubation 25 μl Amplex/HRP mixture per well was added and the plate read plate on a plate reader.

Test [1] concerns Diet Induced Obese (DIO) C57BL/6 mice. The experiment in a line: 10 day DIO mouse model, weight loss vs. vehicle. It is filed as in vivo. As to conditions: 240 h; for inhibition in vivo at 0.3 mg/kg: 0.3 mpk sc once a day for 10 days; for inhibition in vivo at 1 mg/kg: 1.0 mpk sc once a day for 10 days. The text has this:
The objective of this study design was to investigate the efficacy of disclosed compounds in a 10 day DIO mouse model. Effects on body weight, food intake, hematology and blood chemistry were the primary readouts of this study design. Male, Diet Induced Obese (DIO) C57BL/6 mice, 19-21 weeks of age (13-15 weeks on high fat diet) were ordered from a certified vendor and upon receipt were housed on irradiated corncob bedding in micro-isolator cages on a 12-hour light-dark cycle (0700-1900) at 68-74° F. and 30-70% humidity. Mice were fed Research Diets D12492 (60% Kcal fat, 20% Kcal carbohydrate and 20% protein) and provided water ad libitum. DIO mice were received and housed in the facility for approximately two weeks prior to the start of test article administration. On Day −4 or −3, mice were randomized into study groups based on body weight and body weights were continued to be recorded daily for the duration of the study. Daily food intake was assessed starting on Study Day −2 by weighing of the food with hopper together to avoid loss of food in transfer.
Compounds were formulated into a 100% DMSO stock (at 9 mg/mL) prior to the start, and further diluted into the target working concentration using the vehicle of 10% DMSO in water. Prior to test article administration, starting on Day −3 a dosing acclimation occurred with all animals receiving a subcutaneous injection of vehicle (10% DMSO) only for 3 days. Starting on Day 1, test compounds or vehicle were administered based on individual body weight, subcutaneously, once a day for 10 days. All mice were sacrificed on Day 11, 24 hours following the final dosing on Day 10. After sacrifice, whole blood was collected and analyzed for hematology and blood chemistry parameters.
Compounds were tested for weight loss vs. vehicle at 0.3 and 1.0 mpk sc (mg per kg animal weight delivered subcutaneously), and the results are shown in Table 2 below.

Molecules are shown by their SMILES. Where a name gives a salt, the structure may show the parent alone. Where only a bound is given, the exact number is not on record here.

T1 sequence (P50579 whole entry): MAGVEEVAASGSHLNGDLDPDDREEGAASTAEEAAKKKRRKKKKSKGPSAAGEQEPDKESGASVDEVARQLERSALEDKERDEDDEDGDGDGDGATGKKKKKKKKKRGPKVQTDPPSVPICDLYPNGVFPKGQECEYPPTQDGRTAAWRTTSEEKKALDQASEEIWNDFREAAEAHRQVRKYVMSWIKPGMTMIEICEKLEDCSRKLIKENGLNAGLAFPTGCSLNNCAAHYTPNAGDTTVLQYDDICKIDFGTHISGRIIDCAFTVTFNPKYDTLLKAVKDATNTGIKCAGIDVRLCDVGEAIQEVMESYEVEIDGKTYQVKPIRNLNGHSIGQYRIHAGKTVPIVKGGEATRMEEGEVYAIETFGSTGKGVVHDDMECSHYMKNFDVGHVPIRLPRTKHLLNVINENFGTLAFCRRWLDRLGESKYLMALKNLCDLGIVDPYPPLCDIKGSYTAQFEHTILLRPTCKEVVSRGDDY

With `CO[C@@H]1[C@H](OC(=O)N[C@H](c2cn(CC(C)C)cn2)C(C)C)CC[C@]2(CO2)[C@H]1[C@@]1(C)O[C@@H]1CC=C(C)C` [Example 42, (3R,4S,5S,6R)-5-methoxy-4-((2R,3R)-2-methyl-3-(3-methylbut-2-en-1-yl)oxiran-2-yl)-1-oxaspiro[2.5]octan-6-yl ((S)-1-(1-isobutyl-1H-imidazol-4-yl)-2-methylpropyl)carbamate], the IC50 at recombinant human MetAP2 was < 50 nM. In test [1], at 0.3 mg/kg the inhibition in vivo was 10%.
The corresponding values for `CNc1nnc([C@H](NC(=O)O[C@@H]2CC[C@]3(CO3)[C@@H]([C@@]3(C)O[C@@H]3CC=C(C)C)[C@@H]2OC)C(C)C)s1` [Example 7, (3R,4S,5S,6R)-5-methoxy-4-((2R,3R)-2-methyl-3-(3-methylbut-2-enyl)oxiran-2-yl)-1-oxaspiro[2.5]octan-6-yl (R)-2-methyl-1-(5-(methylamino)-1,3,4-thiadiazol-2-yl)propylcarbamate] are < 50 nM and 1.8%.
Turning to `CO[C@@H]1[C@H](OC(=O)N[C@@H](Cc2nnc(N)s2)C(C)C)CC[C@]2(CO2)[C@H]1[C@@]1(C)O[C@@H]1CC=C(C)C` [Example 37, (3R,4S,5S,6R)-5-methoxy-4-((2R,3R)-2-methyl-3-(3-methylbut-2-enyl)oxiran-2-yl)-1-oxaspiro[2.5]octan-6-yl (S)-1-(5-amino-1,3,4-thiadiazol-2-yl)-3-methylbutan-2-ylcarbamate], at recombinant human MetAP2, the IC50 was in the range of 50 to 500 nM. The compound also yielded an inhibition in vivo at 0.3 mg/kg in test [1] of 2.5%.
As to `CNc1nnc([C@@H](NC(=O)O[C@@H]2CC[C@]3(CO3)[C@@H]([C@@]3(C)O[C@@H]3CC=C(C)C)[C@@H]2OC)C(C)C)s1` [Example 8, (3R,4S,5S,6R)-5-methoxy-4-((2R,3R)-2-methyl-3-(3-methylbut-2-enyl)oxiran-2-yl)-1-oxaspiro[2.5]octan-6-yl (S)-2-methyl-1-(5-(methylamino)-1,3,4-thiadiazol-2-yl)propylcarbamate], the IC50 on recombinant human MetAP2 lay within 50 to 500 nM. Moreover, at 0.3 mg/kg the inhibition in vivo in test [1] was 2%.
Take `CO[C@@H]1[C@H](OC(=O)NCC(C)(C)c2nnc[nH]2)CC[C@]2(CO2)[C@H]1[C@@]1(C)O[C@@H]1CC=C(C)C` [Example 39, (3R,4S,5S,6R)-5-methoxy-4-((2R,3R)-2-methyl-3-(3-methylbut-2-enyl)oxiran-2-yl)-1-oxaspiro[2.5]octan-6-yl 2-methyl-2-(4H-1,2,4-triazol-3-yl)propylcarbamate]: the IC50 at recombinant human MetAP2 lay within 50 to 500 nM. In test [1], this compound came in with an inhibition in vivo at 0.3 mg/kg of 3.4% and an inhibition in vivo at 1 mg/kg of 7.6%.
For the compound `CO[C@@H]1[C@H](OC(=O)N[C@H](Cc2nnc(N)s2)C(C)C)CC[C@]2(CO2)[C@H]1[C@@]1(C)O[C@@H]1CC=C(C)C` [Example 36, (3R,4S,5S,6R)-5-methoxy-4-((2R,3R)-2-methyl-3-(3-methylbut-2-en-1-yl)oxiran-2-yl)-1-oxaspiro[2.5]octan-6-yl ((R)-1-(5-amino-1,3,4-thiadiazol-2-yl)-3-methylbutan-2-yl)carbamate], the 50% inhibitory concentration (IC50) at recombinant human MetAP2 was 50 to 500 nM. Testing at 1 mg/kg in test [1] gave an inhibition in vivo of 2%.
For `CO[C@@H]1[C@H](OC(=O)N[C@H](Cc2nnc[nH]2)C(C)C)CC[C@]2(CO2)[C@H]1[C@@]1(C)O[C@@H]1CC=C(C)C` [Example 31, (3R,4S,5S,6R)-5-methoxy-4-((2R,3R)-2-methyl-3-(3-methylbut-2-enyl)oxiran-2-yl)-1-oxaspiro[2.5]octan-6-yl (R)-3-methyl-1-(4H-1,2,4-triazol-3-yl)butan-2-ylcarbamate], the IC50 at recombinant human MetAP2 is < 50 nM. In test [1], this compound gave an inhibition in vivo at 0.3 mg/kg of 2.4% and an inhibition in vivo at 1 mg/kg of 2.5%.
`CO[C@@H]1[C@H](OC(=O)N[C@H](c2ccc(N3CCC3)nc2)C(C)C)CC[C@]2(CO2)[C@H]1[C@@]1(C)O[C@@H]1CC=C(C)C` [Example 41, (3R,4S,5S,6R)-5-methoxy-4-((2R,3R)-2-methyl-3-(3-methylbut-2-enyl)oxiran-2-yl)-1-oxaspiro[2.5]octan-6-yl ((S)-1-(6-(azetidin-1-yl)pyridin-3-yl)-2-methylpropyl)carbamate]: on recombinant human MetAP2, the IC50 is < 50 nM. In test [1], this compound showed an inhibition in vivo at 0.3 mg/kg of 11.7%.
For the compound `CO[C@@H]1[C@H](OC(=O)N[C@H](c2cn(C[C@@H]3CCCN3C)cn2)C(C)C)CC[C@]2(CO2)[C@H]1[C@@]1(C)O[C@@H]1CC=C(C)C` [Example 14, (3R,4S,5S,6R)-5-methoxy-4-((2R,3R)-2-methyl-3-(3-methylbut-2-enyl)oxiran-2-yl)-1-oxaspiro[2.5]octan-6-yl (S)-2-methyl-1-(1-(((S)-1-methylpyrrolidin-2-yl)methyl)-1H-imidazol-4-yl)propylcarbamate formate], at recombinant human MetAP2, the IC50 was < 50 nM. In test [1], this compound returned an inhibition in vivo at 0.3 mg/kg of 5.8% and an inhibition in vivo at 1 mg/kg of 10.3%.
Consider `CO[C@@H]1[C@H](OC(=O)N(C)[C@H](c2cn(CC(C)C)cn2)C(C)C)CC[C@]2(CO2)[C@H]1[C@@]1(C)O[C@@H]1CC=C(C)C` [Example 40, (3R,4S,5S,6R)-5-methoxy-4-((2R,3R)-2-methyl-3-(3-methylbut-2-enyl)oxiran-2-yl)-1-oxaspiro[2.5]octan-6-yl ((S)-1-(1-isobutyl-1H-imidazol-4-yl)-2-methylpropyl)(methyl)carbamate], for which, on recombinant human MetAP2, the IC50 fell in the range of 50 to 500 nM. In test [1], this compound had an inhibition in vivo at 0.3 mg/kg of 2.3%.
On to `CNc1nnc(C[C@H](NC(=O)O[C@@H]2CC[C@]3(CO3)[C@@H]([C@@]3(C)O[C@@H]3CC=C(C)C)[C@@H]2OC)C(C)C)s1` [Example 34, (3R,4S,5S,6R)-5-methoxy-4-((2R,3R)-2-methyl-3-(3-methylbut-2-enyl)oxiran-2-yl)-1-oxaspiro[2.5]octan-6-yl (S)-3-methyl-1-(5-(methylamino)-1,3,4-thiadiazol-2-yl)butan-2-ylcarbamate], for which the 50% inhibitory concentration (IC50) on recombinant human MetAP2 lay within 50 to 500 nM. This compound had an inhibition in vivo at 0.3 mg/kg in test [1] of 3.4%.
The matching figures for `CO[C@@H]1[C@H](OC(=O)N[C@H](c2cn(C[C@@H]3CCN(CC(F)F)C3)cn2)C(C)C)CC[C@]2(CO2)[C@H]1[C@@]1(C)O[C@@H]1CC=C(C)C` [Example 19, (3R,4S,5S,6R)-5-methoxy-4-((2R,3R)-2-methyl-3-(3-methylbut-2-enyl)oxiran-2-yl)-1-oxaspiro[2.5]octan-6-yl (S)-1-(1-(((R)-1-(2,2-difluoroethyl)pyrrolidin-3-yl)methyl)-1H-imidazol-4-yl)-2-methylpropylcarbamate]: 50 to 500 nM and 1.9%.
The corresponding values for `CO[C@@H]1[C@H](OC(=O)N[C@H](c2ccc(N3CCOCC3)nc2)C(C)C)CC[C@]2(CO2)[C@H]1[C@@]1(C)O[C@@H]1CC=C(C)C` [Example 26, (3R,4S,5S,6R)-5-methoxy-4-((2R,3R)-2-methyl-3-(3-methylbut-2-enyl)oxiran-2-yl)-1-oxaspiro[2.5]octan-6-yl (S)-2-methyl-1-(6-morpholinopyridin-3-yl)propylcarbamate] are 50 to 500 nM and 7.2%.
The corresponding values for `CO[C@@H]1[C@H](OC(=O)N[C@H](c2cn(C[C@H]3CCN(C)C3)c(C)n2)C(C)C)CC[C@]2(CO2)[C@H]1[C@@]1(C)O[C@@H]1CC=C(C)C` [Example 24, (3R,4S,5S,6R)-5-methoxy-4-((2R,3R)-2-methyl-3-(3-methylbut-2-enyl)oxiran-2-yl)-1-oxaspiro[2.5]octan-6-yl (S)-2-methyl-1-(2-methyl-1-(((S)-1-methylpyrrolidin-3-yl)methyl)-1H-imidazol-4-yl)propylcarbamate] are 50 to 500 nM and 8.2%.

As a reminder, the IC50 is the midpoint of a concentration-inhibition curve. In general, inhibition in vivo refers to the share of the control response that was lost under treatment. A lower inhibition in vivo goes with little suppression.
